The record followed here is US7288537B2, “Azetidine derivatives as CCR-3 receptor antagonists” (Novartis AG, priority 2002, dated 2007).

Assay [1] concerns the target T1, human CCR-3 (Homo sapiens, UniProt P51677).
T1 construct: expressed in transfected cells; membranes
T1 sequence (P51677 1-355): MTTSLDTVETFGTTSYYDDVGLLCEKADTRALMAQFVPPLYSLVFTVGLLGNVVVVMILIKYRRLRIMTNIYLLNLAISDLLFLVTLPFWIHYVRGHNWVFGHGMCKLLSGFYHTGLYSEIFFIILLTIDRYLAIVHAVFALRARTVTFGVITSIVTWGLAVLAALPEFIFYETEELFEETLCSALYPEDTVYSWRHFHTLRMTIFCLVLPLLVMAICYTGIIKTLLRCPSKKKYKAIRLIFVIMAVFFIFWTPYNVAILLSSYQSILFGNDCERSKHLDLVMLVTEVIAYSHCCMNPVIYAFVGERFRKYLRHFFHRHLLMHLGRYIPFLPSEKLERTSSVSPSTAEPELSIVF
Put plainly: CCR-3 binding assay (SPA, [125I]-human eotaxin). Particulars: membranes of RBL-2H3 cells stably expressing CCR3, 4 hours at room temperature, read-out: IC50, inhibition of binding of human eotaxin to human CCR-3. How it is done:
In this assay the effect of agents of the invention on the binding of human eotaxin to human CCR-3 is determined. Recombinant cells expressing human CCR-3 are captured by wheatgerm agglutinin (WGA) polyvinyltoluidene (PVT) SPA beads (available from Amersham), through a specific interaction between the WGA and carbohydrate residues of glycoproteins on the surface of the cells. [^125I]-human eotaxin (available from Amersham) binds specifically to CCR-3 receptors bringing the [^125I]-human eotaxin in close proximity to the SPA beads. Emitted â-particles from the [^125I]-human eotaxin excite, by its proximity, the fluorophore in the beads and produce light.
Preparation of Assay Buffer: 5.96 g HEPES and 7.0 g sodium chloride are dissolved in distilled water and 1M aqueous CaCl2 (1 ml) and 1M aqueous MgCl2 (5 ml) are added. The pH is adjusted to 7.6 with NaOH and the solution made to a final volume of 1 L using distilled water. 5 g bovine serum albumin and 0.1 g sodium azide are then dissolved in the solution and the resulting buffer stored at 4° C. A Complete™ protease inhibitor cocktail tablet (available from Boehringer) is added per 50 ml of the buffer on the day of use.
Preparation of Homogenisation Buffer: Tris-base (2.42 g) is dissolved in distilled water, the pH of the solution is adjusted to 7.6 with hydrochloric acid and the solution is diluted with distilled water to a final volume of 1 l. The resulting buffer is stored at 4° C. A Complete™ protease inhibitor cocktail tablet is added per 50 ml of the buffer on the day of use.
Preparation of membranes: Confluent rat basophil leukemia (RBL-2H3) cells stably expressing CCR3 are removed from tissue culture flasks using enzyme-free cell dissociation buffer and resuspended in phosphate-buffered saline. The cells are centrifuged (800 g, 5 minutes), the pellet resuspended in ice-cold homogenisation buffer using 1 ml homogenisation buffer per gram of cells and incubated on ice for 30 minutes. The cells are homogenised on ice with 10 strokes in a glass mortar and pestle. The homogenate is centrifuged (800 g, 5 minutes, 4° C.), the supernatant further centrifuged (48,000 g, 30 minutes, 4° C.) and the pellet redissolved in Homogenisation Buffer containing 10% (v/v) glycerol. The protein content of the membrane preparation is estimated by the method of Bradford (Anal. Biochem. (1976) 72:248) and aliquots are snap frozen and stored at −80° C.
The assay is performed in a final volume of 250 μl per well of an Optiplate™ microplate (ex Canberra Packard). To selected wells of the Optiplate™ are added 50 μl of solutions of a test compound in Assay Buffer containing 5% DMSO (concentrations from 0.01 nM to 10 μM). To determine total binding, 50 μl of the Assay Buffer containing 5% DMSO is added to other selected wells. To determine non-specific binding, 50 μl of 100 nM human eotaxin (ex R&D Systems) in Assay Buffer containing 5% DMSO is added to further selected wells. To all wells are added 50 μl [^125I]-Human eotaxin (ex Amersham) in Assay Buffer containing 5% DMSO at a concentration of […] (to give a final concentration of […]), 50 μl of WGA-PVT SPA beads in Assay Buffer (to give a final concentration of 1.0 mg beads per well) and 100 μl of the membrane preparation at a concentration of 100 μg protein in Assay Buffer (to give a final concentration of 10 μg protein per well). The plate is then incubated for 4 hours at room temperature. The plate is sealed using TopSeal-S™ sealing tape (ex Canberra Packard) according to the manufacturers instructions. The resulting scintillations are counted using a Canberra Packard TopCount™ scintillation counter, each well being counted for 1 minute. The concentration of test compound at which 50% inhibition occurs (IC50) is determined from concentration-inhibition curves in a conventional manner.

For assay [2], the target named is histamine H1 (Homo sapiens, UniProt P35367). Kind of assay: histamine H1 antagonism.
Assay [3] addresses alpha-1 adrenergic receptor. Kind of assay: alpha-1 adrenergic receptor radioligand binding assay ([125I]-HEAT, cerebral cortex membranes). Particulars: rat cerebral cortex membranes; radioligand used at 40 pM. How it is done:
Cerebral cortices from male Sprague-Dawley rats (175-200 g) are dissected and homogenised in 10 volumes of ice cold 0.32 M sucrose (containing 1 mM MgCl2 dihydrate and 1 mM K2HPO4) with a glass/teflon homogeniser. The membranes are centrifuged at 1000×g for 15 miN, the pellet discarded and the centrifugation repeated. The supernatants are pooled and centrifuged at 18,000×g for 15 minutes. The pellet is osmotically shocked in 10 volumes of water and kept on ice for 30 minutes. The suspension is centrifuged at 39,000×g for 20 minutes, resuspended in Krebs-Henseleit buffer pH 7.4 (1.17 mM MgSO4 anhydrous, 4.69 mM KCl, 0.7 mM K2HPO4 anhydrous, 0.11 M NaCl, 11 mM D-glucose and 25 mM NaHCO3) containing 20 mM Tris, and kept for 2 days at −20° C. The membranes are then thawed at 20-23° C., washed three times with Krebs-Henseleit buffer by centrifugation at 18,000×g for 15 minutes, left overnight at 4° C. and washed again three times. The final pellet is resuspended with a glass/teflon homogeniser in 125 ml/100 membranes in the same buffer. […]
The resulting membranes are subjected to a radioligand binding assay. […] Following drying of the plates for 3 h. at 50° C., 40 μl of Microscint 20 is added to each well, the plates incubated at room temperature for a further 20 minutes and the retained radioactivity quantified in a Packard TopCount NXT™ scintillation counter. […]

histamine H1, sequence (P35367 whole entry): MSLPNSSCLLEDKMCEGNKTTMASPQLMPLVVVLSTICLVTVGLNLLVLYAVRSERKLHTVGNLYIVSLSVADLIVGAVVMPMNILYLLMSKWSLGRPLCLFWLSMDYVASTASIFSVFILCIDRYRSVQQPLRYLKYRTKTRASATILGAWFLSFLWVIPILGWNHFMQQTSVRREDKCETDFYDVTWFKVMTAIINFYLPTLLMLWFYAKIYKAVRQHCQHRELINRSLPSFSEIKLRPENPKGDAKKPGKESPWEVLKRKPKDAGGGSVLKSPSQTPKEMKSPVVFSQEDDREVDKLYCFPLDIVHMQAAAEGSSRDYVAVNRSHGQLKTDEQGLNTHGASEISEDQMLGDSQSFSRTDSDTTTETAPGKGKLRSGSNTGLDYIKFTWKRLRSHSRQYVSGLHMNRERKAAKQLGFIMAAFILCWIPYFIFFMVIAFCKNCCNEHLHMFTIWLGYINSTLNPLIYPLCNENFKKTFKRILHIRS

In general, IC50 refers to the concentration needed to halve the response being measured. On to `COc1cc(NC(=O)N[C@H](CO)CCN2CC(Oc3ccc(Cl)cc3)C2)cc(OC)c1` [Example 26, 1-{(S)-3-[3-(4-Chloro-phenoxy)-azetidin-1-yl]-1-hydroxymethyl-propyl}-3-(3,5-dimethoxy-phenyl)-urea], for which the IC50 in assay [1] was 7 nM.
In the case of `Cn1nc(C2CC2)cc1NC(=O)N[C@H](CO)CCN1CC(Oc2ccc(Cl)cc2)C1` [Example 83, 1-{(S)-3-[3-(4-Chloro-phenoxy)-azetidin-1-yl]-1-hydroxymethyl-propyl}-3-(5-cyclopropyl-2-methyl-2H-pyrazol-3-yl)-urea], the IC50 in assay [1] was 5 nM.
On the same count and under the same terms, as for `CCc1cc(NC(=O)N[C@H](CO)CCN2CC(Oc3ccc(Cl)cc3)C2)n(C)n1` [Example 88, 1-{(S)-3-[3-(4-Chloro-phenoxy)-azetidin-1-yl]-1-hydroxymethyl-propyl}-3-(5-ethyl-2-methyl-2H-pyrazol-3-yl)-urea], the figure is 6 nM.
Turning to `CCc1nnc(NC(=O)N[C@H](CO)CCN2CC(Oc3ccc(Cl)cc3)C2)s1` [Example 99, 1-{(S)-3-[3-(4-Chloro-phenoxy)-azetidin-1-yl]-1-hydroxymethyl-propyl}-3-(5-ethyl-[1,3,4]thiadiazol-2-yl)-urea], the IC50 in assay [1] is 7 nM.
Still for that read-out and setting: the result for `COc1cc(NC(=O)N[C@@H](CCN2CC(Oc3ccc(Cl)cc3)C2)COC(C)=O)cc(OC)c1` [Example 122, Acetic acid (S)-4-[3-(4-chloro-phenoxy)-azetidin-1-yl]-2-[3-(3,5-dimethoxy-phenyl)-ureido]-butyl ester] reads 22 nM.
For `CCc1nnc(NC(=O)NCCCN2CC(Cc3ccc(Cl)cc3)C2)s1` [Example 190, 1-{3-[3-(4-chloro-benzyl)-azetidin-1-yl]-propyl}-3-(5-ethyl-[1,3,4]thiadiazol-2-yl)-urea], in assay [1], the concentration for half-maximal inhibition (IC50) turned out to be 11 nM. Further, in assay [2], the “histamine H1 antagonist activity” value is listed as “histamine H1 antagonists”.
What is called Kd is the constant that tells how readily two partners part at equilibrium. A high value points to lower affinity. Turning to `O=C1c2ccccc2CCC1CNCCc1ccc(O)c(I)c1` (centres unmarked) [[^125I]-HEAT], the affinity in assay [3], expressed as Kd, was 0.0589 ± 0.0187 nM.
